Measured values published in PMC8878317, “Chemogenomics identifies acetyl-coenzyme A synthetase as a target for malaria treatment and prevention” (Cell Chemical Biology, 2022).

Test system: P. falciparum 3D7 parasites
Experiment: Metabolomic profiling of compound-treated parasites (LC/MS);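 on Metabolite data: 3-Phosphoglycerate: Log2 fold change in abundance versus untreated parasite controls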;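 on Metabolite data: Myo-Inositol: Log2 fold change in abundance versus untreated parasite controls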;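 on Metabolite data: N-Carbamoyl-L-Aspartate: Log2 fold change in abundance versus untreated parasite controls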;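 on Metabolite data: Nicotinate: Log2 fold change in abundance versus untreated parasite controls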
Type: cell-based
Set-up: Metabolite data: dTMP / Metabolite data: GMP / Metabolite data: S-Adenosyl-L-Homocysteine / Metabolite data: 1_3-Bisphosphoglyceric acid: scale not given here
Procedure: The metabolite extraction protocol was performed as described elsewhere ([Allman et al., 2016]). Briefly, 1 mL of trophozoites that were magnetically purified to a concentration of 1×10^8 parasites/mL were placed into wells with 4 mL of RPMI 1640 media and allowed to recover for one hour. […] The culture was incubated for another 2.5 hr. The culture was centrifuged and quenched with 90% methanol containing 0.25 μM ^13C,^15N-Labeled-Aspartate, vortexed, and centrifuged. The supernatant was transferred to a new tube and dried for storage. Prior to analysis, the samples were resuspended to a final concentration of 1×10^8 parasites/mL in a solution of 3% methanol:water containing 1 μM chlorpropamide as an internal standard.
The chromatographic conditions used in this experiment were performed with slight modifications from previous methods ([Zhang et al., 2018]). Briefly, a Waters XSelect HSS C18 column was used on a gradient reverse-phase chromatographic configuration with 97:3 water:methanol with 10 mM tributylamine and 15 mM acetic acid (solvent A) and methanol (solvent B). A Thermo-Scientific Exactive Plus Orbitrap mass spectrometer was operated in negative mode for the detection of the metabolites. Peak picking and integration were performed using El-Maven LC/MS data processing software. The peak data were then exported to Excel where metabolite areas were normalized to the internal standards, blank subtracted, and averaged by condition.

Compound: COc1cc2[nH]c(C)c(-c3ccc(Oc4ccc(OC(F)(F)F)cc4)cc3)c(=O)c2cc1Cl [ELQ-300]
- Metabolite data: 1_3-Bisphosphoglyceric acid: 0
- Metabolite data: 2_3-Diphosphoglyceric acid: -0.1098
- Metabolite data: 3-Phosphoglycerate: 0.01477
- Metabolite data: 4-Aminobutyrate: 0.29
- Metabolite data: 4-Phosphopantothenate: -0.3711
- Metabolite data: 4-phosphopantetheine: 0
- Metabolite data: 5-aminopentanoic acid: 0
- Metabolite data: 5-phosphoribosyl-1-pyrophosphate: 0
- Metabolite data: 6-Phospho-D-Gluconate: 0.1987
- Metabolite data: ADP-D-Glucose: -0.03292
- Metabolite data: Acetyl-CoA: -0.7931
- Metabolite data: Acetyllysine: -0.0938
- Metabolite data: Aconitate: 0.3201
- Metabolite data: CDP: -0.9142
- Metabolite data: CDP-Ethanolamine: -0.4266
- Metabolite data: CDP-choline: 0
- Metabolite data: CMP: -0.5539
- Metabolite data: CTP: -0.7898
- Metabolite data: Citrate/Isocitrate: 0.1898
- Metabolite data: Cyclic-AMP: 0.1104
- Metabolite data: Dihydroorotate: 5.061
- Metabolite data: FAD: 0.09303
- Metabolite data: FMN: -1.009
- Metabolite data: Fructose-1,6-Bisphosphate: 0.1196
- Metabolite data: Fumarate: 0.1542
- Metabolite data: GDP: -0.04006
- Metabolite data: GMP: 0.4588
- Metabolite data: GTP: 0.1697
- Metabolite data: Glucose-1/6-Phosphate: 0.2608
- Metabolite data: Glutathione Disulfide: -0.1199
- Metabolite data: Hexose: 0
- Metabolite data: Hydroxyisocaproic acid: 0
- Metabolite data: Indole: 0.2721
- Metabolite data: Ketoleucine: 0
- Metabolite data: L-arginino-succinate: 0
- Metabolite data: Lactate: -0.08432
- Metabolite data: Malate: 0.0586
- Metabolite data: Myo-Inositol: -0.4815
- Metabolite data: N-Acetyl-Glutamate: 0.1479
- Metabolite data: N-Acetyl-L-Alanine: -0.6073
- Metabolite data: N-Acetyl-L-Ornithine: -0.1715
- Metabolite data: N-Carbamoyl-L-Aspartate: 4.761
- Metabolite data: NAD+: 0.09044
- Metabolite data: NADH: 1.43
- Metabolite data: NADP+: -0.1602
- Metabolite data: NADPH: 3.029
- Metabolite data: Nicotinate: 0.05305
- Metabolite data: Octulose 8/1-Phosphate: -0.704
- Metabolite data: Orotate: 0.01858
- Metabolite data: PD: -0.006669
- Metabolite data: PE: -0.3407
- Metabolite data: PEEK: -0.3859
- Metabolite data: Phenol Red: 0
- Metabolite data: Pyroglutamic acid: 0.05668
- Metabolite data: S-Adenosyl-L-Homocysteine: -1.868
- Metabolite data: S-methyl-5'-thioadenosine: -0.1055
- Metabolite data: SD: -0.2791
- Metabolite data: Sedoheptulose Bisphosphate: 0.0682
- Metabolite data: UDP: -1.596
- Metabolite data: UDP-D-Glucose: -0.0232
- Metabolite data: UDP-D-Glucuronate: 0.002049
- Metabolite data: UDP-N-Acetyl-Glucosamine: -0.1795
- Metabolite data: UMP: -0.8903
- Metabolite data: UTP: -1.292
- Metabolite data: a-ketoglutarate: 0.1255
- Metabolite data: acetyl-aspartate: 0
- Metabolite data: arginine: 0
- Metabolite data: asparagine: 0
- Metabolite data: aspartate: 0
- Metabolite data: biotin: 0
- Metabolite data: chlorpropamide: 0
- Metabolite data: coenzyme A: 0
- Metabolite data: dAMP: -0.0907
- Metabolite data: dATP: 0.4618
- Metabolite data: dCDP: -0.107
- Metabolite data: dCMP: -0.1246
- Metabolite data: dCTP: -0.4381
- Metabolite data: dGDP/ADP: -0.01599
- Metabolite data: dGMP/AMP: -0.06466
- Metabolite data: dGTP/ATP: 0
- Metabolite data: dTDP: -1.258
- Metabolite data: dTMP: -1.023
- Metabolite data: dTTP: -1.011
- Metabolite data: folate: 0
- Metabolite data: glucono-lactone: 0
- Metabolite data: glutamate: 0
- Metabolite data: glutamine: 0
- Metabolite data: glutathione: 0
- Metabolite data: histidine: 0
- Metabolite data: hydroxyproline/Aminolevulinate: 0
- Metabolite data: isoleucine: 0
- Metabolite data: leucine: 0
- Metabolite data: maleic acid: 0
- Metabolite data: methionine: 0
- Metabolite data: nicotinamide mononucleotide: 0
- Metabolite data: orotidine-5'-phosphate: 0
